# Source: PubChem BioAssay (NCI)
# Values joined by “and” are separate entries in the source; they are usually repeats but may differ in a detail not shown here. Equal entries are not always repeated.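 Five concentrations, 48 hours, 96-well plates. Here, GI50 denotes the concentration required for 50% inhibition of growth. TGI is the concentration that stops growth completely.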
# Experiments:
# Assay in all cases: NCI-60 cell line screen, 48 h
# [1] = tested on: EKVX NSCLC
# [2] = tested on: RXF 393 renal
# [3] = tested on: OVCAR-8 ovarian
# [4] = tested on: OVCAR-4 ovarian
# [5] = tested on: M14 melanoma
# [6] = tested on: HOP-62 NSCLC
# [7] = tested on: HL-60(TB) leukemia
# [8] = tested on: NCI-H460 lung
# [9] = tested on: SK-OV-3 ovarian
# [10] = tested on: LOX IMVI melanoma
# [11] = tested on: OVCAR-3 ovarian
# [12] = tested on: DLD-1 colon
# [13] = tested on: SF-295 CNS
# [14] = tested on: DMS 114 small cell lung
# [15] = tested on: MALME-3M melanoma
# [16] = tested on: CCRF-CEM leukemia
# [17] = tested on: SW-620 colon
# [18] = tested on: HCT-15 colon
# [19] = tested on: HT29 colon
# [20] = tested on: SF-539 CNS
# [21] = tested on: HOP-92 NSCLC
# [22] = tested on: OVCAR-5 ovarian
# [23] = tested on: LXFL 529 NSCLC
# [24] = tested on: NCI-H23 lung
# [25] = tested on: KM20L2 colon
# [26] = tested on: A498 renal
# [27] = tested on: COLO 205 colon
# [28] = tested on: 786-0 renal
# [29] = tested on: TK-10 renal
# [30] = tested on: UO-31 renal
# [31] = tested on: NCI-H522 lung
# [32] = tested on: HCC-2998 colon
# [33] = tested on: NCI-H226 lung
# [34] = tested on: HCT-116 colon
# [35] = tested on: DMS 273 small cell lung
# [36] = tested on: XF 498 CNS
# [37] = tested on: SN12C renal
# [38] = tested on: UACC-257 melanoma
# [39] = tested on: A549 NSCLC
# [40] = tested on: K-562 leukemia
# [41] = tested on: SK-MEL-2 melanoma
# [42] = tested on: SNB-19 CNS
# [43] = tested on: M19-MEL melanoma
# [44] = tested on: ACHN renal
# [45] = tested on: SK-MEL-28 melanoma
# [46] = tested on: SF-268 CNS
# [47] = tested on: RPMI-8226 leukemia
# [48] = tested on: U251 CNS
# [49] = tested on: CAKI-1 renal
# [50] = tested on: MOLT-4 leukemia
# [51] = tested on: SNB-75 CNS
# [52] = tested on: SNB-78 CNS
# [53] = tested on: SK-MEL-5 melanoma
# [54] = tested on: UACC-62 melanoma
# [55] = tested on: IGROV1 ovarian
# [56] = tested on: KM12 colon
# [57] = tested on: MDA-MB-435
# [58] = tested on: T-47D breast
# [59] = tested on: MDA-MB-231 breast
# [60] = tested on: HS 578T breast
# [61] = tested on: NCI/ADR-RES ovarian
# [62] = tested on: DU-145 prostate
# [63] = tested on: MCF7 breast
# [64] = tested on: SR leukemia
# [65] = tested on: MDA-N
# [66] = tested on: BT-549 breast
# [67] = tested on: PC-3 prostate
compound,measurement,setting,value
CC1(O)CC2C(CC1SCc1ccccc1)C2(C)C (stereo not drawn),TGI,[1],77.3 µM and 31.7 µM
same,TGI,[2],35.6 µM and 28.6 µM
same,TGI,[3],> 100 µM and 30.9 µM
same,GI50,[4],52.8 µM and 15.6 µM
same,TGI,[4],> 100 µM and 29.3 µM
same,TGI,[5],87.2 µM and 28.9 µM
same,TGI,[6],57.9 µM and 30.5 µM
same,GI50,[7],28.3 µM and 10.2 µM
same,TGI,[7],> 100 µM and 33.8 µM
same,TGI,[8],57.8 µM and 27.7 µM
same,GI50,[9],37.5 µM and 15.7 µM
same,TGI,[9],> 100 µM and 29.2 µM
same,TGI,[10],29.3 µM and 31.5 µM
same,TGI,[11],33.6 µM and 25.2 µM
same,GI50,[12],42.4 µM and 16.6 µM
same,TGI,[12],> 100 µM and 30.2 µM
same,TGI,[13],43.4 µM
same,TGI,[14],33.1 µM
same,TGI,[15],44.1 µM and 30.4 µM
same,GI50,[16],37.4 µM and 14.8 µM
same,TGI,[16],> 100 µM and 42.2 µM
same,TGI,[17],46.8 µM and 32.9 µM
same,TGI,[18],65 µM and 30.6 µM
same,TGI,[19],49.1 µM and 29.9 µM
same,TGI,[20],60.2 µM and 33.4 µM
same,TGI,[21],66.4 µM and 14.4 µM
same,TGI,[22],40.4 µM and 31.8 µM
same,GI50,[23],38.6 µM and 14.8 µM
same,TGI,[23],> 100 µM and 28.1 µM
same,TGI,[24],58.5 µM and 27.4 µM
same,TGI,[25],59.4 µM and 35.9 µM
same,TGI,[26],57.9 µM and 32.5 µM
same,TGI,[27],35.6 µM and 30.6 µM
same,TGI,[28],42.7 µM and 29.3 µM
same,GI50,[29],57.1 µM and 19.9 µM
same,TGI,[29],> 100 µM and 34.1 µM
same,GI50,[30],31.2 µM and 14.5 µM
same,TGI,[30],> 100 µM and 27.9 µM
same,TGI,[31],29.1 µM and 25.2 µM
same,GI50,[32],24.1 µM and > 100 µM
same,TGI,[32],50 µM and > 100 µM
same,TGI,[33],42.5 µM and 30.1 µM
same,TGI,[34],47.9 µM and 30.2 µM
same,TGI,[35],33.1 µM and 29.2 µM
same,TGI,[36],32.9 µM and 37.4 µM
same,TGI,[37],43 µM and 29.5 µM
same,GI50,[38],26.2 µM and 12 µM
same,TGI,[38],59.5 µM and 24.7 µM
same,GI50,[39],40.9 µM and 17.4 µM
same,TGI,[39],> 100 µM and 31.1 µM
same,GI50,[40],33.3 µM and 12.3 µM
same,TGI,[40],> 100 µM and 32.1 µM
same,TGI,[41],33.3 µM and 26.1 µM
same,GI50,[42],45.2 µM and 16.7 µM
same,TGI,[42],> 100 µM and 30.7 µM
same,GI50,[43],26.2 µM and > 100 µM
same,TGI,[43],57.8 µM and > 100 µM
same,TGI,[44],34.5 µM and 30.4 µM
same,TGI,[45],> 100 µM and 35.4 µM
same,TGI,[46],54.9 µM and 42 µM
same,TGI,[47],44.9 µM and 51.1 µM
same,TGI,[48],44.7 µM and 29.7 µM
same,TGI,[49],32 µM and 25.2 µM
same,GI50,[50],4.09 µM and 18.4 µM
same,TGI,[50],25.1 µM and 47.7 µM
same,GI50,[51],33.8 µM and 15.3 µM
same,TGI,[51],92.4 µM and 28.6 µM
same,GI50,[52],76.7 µM and 17.9 µM
same,TGI,[52],> 100 µM and 34.9 µM
same,TGI,[53],40.4 µM and 25.8 µM
same,TGI,[54],92.3 µM and 33.4 µM
same,GI50,[55],38.8 µM and 15.4 µM
same,TGI,[55],> 100 µM and 28.9 µM
same,TGI,[56],50.8 µM and 34.6 µM
CC(C)(C)OC(=O)N1CCC2(CC1)C(=O)NCN2c1ccccc1,TGI,[1],> 100 µM
same,TGI,[2],> 100 µM
same,TGI,[57],> 100 µM
same,TGI,[3],> 100 µM
same,TGI,[4],> 100 µM
same,TGI,[5],> 100 µM
same,TGI,[6],> 100 µM
same,TGI,[7],> 100 µM
same,TGI,[8],> 100 µM
same,TGI,[9],> 100 µM
same,TGI,[10],> 100 µM
same,TGI,[11],> 100 µM
same,TGI,[58],> 100 µM
same,TGI,[13],> 100 µM
same,TGI,[15],> 100 µM
same,TGI,[16],> 100 µM
same,TGI,[17],> 100 µM
same,TGI,[18],> 100 µM
same,TGI,[19],> 100 µM
same,TGI,[59],> 100 µM
same,TGI,[20],> 100 µM
same,TGI,[21],> 100 µM
same,TGI,[22],> 100 µM
same,TGI,[24],> 100 µM
same,TGI,[26],> 100 µM
same,TGI,[27],> 100 µM
same,TGI,[28],> 100 µM
same,TGI,[29],> 100 µM
same,TGI,[30],> 100 µM
same,TGI,[60],> 100 µM
same,TGI,[31],> 100 µM
same,TGI,[32],> 100 µM
same,TGI,[61],> 100 µM
same,TGI,[33],> 100 µM
same,TGI,[62],> 100 µM
same,TGI,[34],> 100 µM
same,TGI,[37],> 100 µM
same,TGI,[38],> 100 µM
same,TGI,[39],> 100 µM
same,TGI,[40],> 100 µM
same,TGI,[41],> 100 µM
same,TGI,[42],> 100 µM
same,TGI,[63],> 100 µM
same,TGI,[64],> 100 µM
same,TGI,[65],> 100 µM
same,TGI,[44],> 100 µM
same,TGI,[45],> 100 µM
same,TGI,[46],> 100 µM
same,TGI,[47],> 100 µM
same,TGI,[48],> 100 µM
same,TGI,[49],> 100 µM
same,TGI,[66],> 100 µM
same,TGI,[50],> 100 µM
same,TGI,[51],> 100 µM
same,TGI,[53],> 100 µM
same,TGI,[54],> 100 µM
same,TGI,[55],> 100 µM
same,TGI,[67],> 100 µM
same,TGI,[56],> 100 µM
